# Measured values from patent US10562891B2, “Quinazolinones as PARP14 inhibitors” (Ribon Therapeutics Inc., priority 2017, dated 2020).
# Counter-ions that a name gives are not always drawn.
# Molecular target: catalytic domain of human PARP14 (Homo sapiens (Human), UniProt Q460N5)
# Experiment: Enzymatic assay for inhibition of PARP14 (DELFIA, auto-modification with biotin-NAD)
# Format: biochemical
# Conditions: auto-modification of PARP14 by biotin-NAD, 50 nM PARP14, 3 μM biotin-NAD
# How it was run: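 His-TEV-tagged PARP14 catalytic domain (50 nM) preincubated with compound 30 min at 25 °C, then auto-modified with 3 μM biotin-NAD for 3 h at 25 °C in HEPES pH 8 buffer with DTT. IC50 from 4-parameter fit, rucaparib and DMSO as controls.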
# catalytic domain of human PARP14, sequence (Q460N5 1611-1801): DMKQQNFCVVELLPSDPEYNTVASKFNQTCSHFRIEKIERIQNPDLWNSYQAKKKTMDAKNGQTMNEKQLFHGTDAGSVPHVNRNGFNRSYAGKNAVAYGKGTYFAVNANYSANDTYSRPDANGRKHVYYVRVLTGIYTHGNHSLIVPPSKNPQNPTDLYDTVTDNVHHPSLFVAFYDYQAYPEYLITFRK
row,Compound,IC50
1,"Cc1cccc2c(=O)[nH]c(CS[C@H]3CC[C@H](CN(C)C)CC3)nc12 [Example 69, 2-(((trans-4-((Dimethylamino)methyl)cyclohexyl)thio)methyl)-8-methyl quinazolin-4(3H)-one Trifluoroacetate]",< 1000 nM
2,"Cc1cccc2c(=O)[nH]c(CSC3CCN(C[C@@H]4CCCN4)CC3)nc12 [Example 161, (S)-8-Methyl-2-(((1-(pyrrolidin-2-ylmethyl)piperidin-4-yl)thio)methyl) quinazolin-4(3H)-one Hydrochloride]",1000 to 10000 nM
3,"CC(=O)NC[C@H]1CC[C@H](SCc2nc3c(C)cccc3c(=O)[nH]2)CC1 [Example 178, N-(((trans)-4-(((8-methyl-4-oxo-3,4-dihydroquinazolin-2-yl)methyl)thio)cyclohexyl)methyl)acetamide]",1000 to 10000 nM
4,"O=c1[nH]c(CS[C@H]2CCNC[C@@H]2C(F)(F)F)nc2cc(NC3CCCC3)cc(F)c12 (relative stereo) [Example 222, 7-(Cyclopentylamino)-5-fluoro-2-(((trans-3-(trifluoromethyl)piperidin-4-yl)thio)methyl)quinazolin-4(3H)-one Hydrochloride]",< 1000 nM
5,"NC(=O)C[C@H]1CC[C@H](SCc2nc3cc(NC4CCCC4)cc(F)c3c(=O)[nH]2)CC1 [Example 286, 2-(Trans-4-(((7-(cyclopentylamino)-5-fluoro-4-oxo-3,4-dihydroquinazolin-2-yl)methyl)thio)cyclohexyl)acetamide]",< 1000 nM
6,"O=c1[nH]c(CS[C@H]2CC[C@@H](C(=O)O)CC2)nc2cc(NC3CCCC3)cc(F)c12 [Example 216, cis-4-(((7-(Cyclopentylamino)-5-fluoro-4-oxo-3,4-dihydroquinazolin-2-yl)methyl)thio)cyclohexane-1-carboxylic acid]",1000 to 10000 nM
7,"Cc1cc(Nc2ccc3c(=O)[nH]c(CSC4CCOCC4)nc3c2)on1 [Example 192, 7-((3-methylisoxazol-5-yl)amino)-2-(((tetrahydro-2H-pyran-4-yl)thio)methyl)quinazolin-4(3H)-one]",< 1000 nM
8,"CS(=O)(=O)CCN1CCC(SCc2nc3cc(NC4CCCC4)cc(F)c3c(=O)[nH]2)CC1 [Example 276, 7-(Cyclopentylamino)-5-fluoro-2-(((1-(2-(methylsulfonyl)ethyl)piperidin-4-yl)thio)methyl)quinazolin-4(3H)-one]",< 1000 nM
9,"O=c1[nH]c(CS[C@H]2CC[C@@H](O)CC2)nc2cc(Nc3cccnc3)ccc12 [Example 100, 2-(((cis-4-Hydroxycyclohexyl)thio)methyl)-7-(pyridin-3-ylamino)quinazolin-4(3H)-one]",< 1000 nM
10,"Cc1cccc(CN2CCC(SCc3nc4c(C)cccc4c(=O)[nH]3)CC2)n1 [Example 145, 8-Methyl-2-(((1-((6-methylpyridin-2-yl)methyl)piperidin-4-yl)thio)methyl)quinazolin-4(3H)-one bistrifluoroacetate]",< 1000 nM
11,"N#CCN1CCC(SCc2nc3cc(NC4CCCC4)cc(F)c3c(=O)[nH]2)CC1 [Example 285, 2-(4-(((7-(Cyclopentylamino)-5-fluoro-4-oxo-3,4-dihydroquinazolin-2-yl)methyl)thio)piperidin-1-yl)acetonitrile]",< 1000 nM
12,"O=c1[nH]c(CSC2CCN(C3COC3)CC2)nc2cc(NC3CCCC3)cc(F)c12 [Example 255, 7-(Cyclopentylamino)-5-fluoro-2-(((1-(oxetan-3-yl)piperidin-4-yl)thio)methyl)quinazolin-4(3H)-one]",< 1000 nM
13,"Cc1cccc2c(=O)[nH]c(CS[C@H]3C[C@H](OCc4ccccc4)C3)nc12 [Example 38, 2-((((trans)-3-(Benzyloxy)cyclobutyl)thio)methyl)-8-methylquinazolin-4(3H)-one]",> 10000 nM
14,"Cc1cccc2c(=O)[nH]c(CSC3CCN(Cc4nn(C)c5ccccc45)CC3)nc12 [Example 143, 8-Methyl-2-(((1-((1-methyl-1H-indazol-3-yl)methyl)piperidin-4-yl)thio)methyl)quinazolin-4(3H)-one trifluoroacetate]",1000 to 10000 nM
15,"COc1ccccc1Nc1ccc2c(=O)[nH]c(CSC3CCOCC3)nc2c1 [Example 84, 7-((2-Methoxyphenyl)amino)-2-(((tetrahydro-2H-pyran-4-yl)thio)methyl)quinazolin-4(3H)-one]",1000 to 10000 nM
16,"Cc1cccc2c(=O)[nH]c(CSC3CCN(Cc4ccccn4)CC3)nc12 [Example 18, 8-Methyl-2-(((1-(pyridin-2-ylmethyl)piperidin-4-yl)thio)methyl)quinazolin-4(3H)-one]",< 1000 nM
17,"O=c1[nH]c(CS[C@H]2CCNC[C@H]2F)nc2cc(NC3CCCC3)cc(F)c12 (relative stereo) [Example 212, 7-(Cyclopentylamino)-5-fluoro-2-((((cis)-3-fluoropiperidin-4-yl)thio)methyl)quinazolin-4(3H)-one Hydrochloride]",< 1000 nM
18,"O=C(Nc1ccc2c(=O)[nH]c(CSC3CCOCC3)nc2c1)c1ccccc1 [Example 76, N-(4-Oxo-2-(((tetrahydro-2H-pyran-4-yl)thio)methyl)-3,4-dihydroquinazolin-7-yl)benzamide]",1000 to 10000 nM
19,"O=c1[nH]c(CSC2CCOCC2)nc2cc(Nc3cncnc3)ccc12 [Example 87, 7-(Pyrimidin-5-ylamino)-2-(((tetrahydro-2H-pyran-4-yl)thio)methyl)quinazolin-4(3H)-one]",1000 to 10000 nM
20,"O=c1[nH]c(CSC2CCN(CC(F)F)CC2)nc2cc(NC3CCCC3)ccc12 [Example 258, 7-(Cyclopentylamino)-2-(((1-(2,2-difluoroethyl)piperidin-4-yl)thio)methyl)quinazolin-4(3H)-one]",< 1000 nM

# Further lines, results first:
row,IC50,Compound
1,< 1000 nM,CC(=O)N[C@H]1C[C@H](SCc2nc3cc(OCC4CCOCC4)cc(F)c3c(=O)[nH]2)C1 [Example 393]
2,< 1000 nM,"O=c1[nH]c(CSC2CCCCC2)nc2cc(NC3CCCC3)cc(F)c12 [Example 215, 2-((Cyclohexylthio)methyl)-7-(cyclopentylamino)-5-fluoroquinazolin-4(3H)-one]"
3,< 1000 nM,O=c1[nH]c(CSC2CCOCC2)nc2cc(OCC3CCNCC3)cc(F)c12 [Example 399]
4,< 1000 nM,O=C(N[C@H]1CC[C@H](SCc2nc3cc(OCC4CC4)cc(F)c3c(=O)[nH]2)CC1)C1CC1 [Example 395]
5,> 10000 nM,"CN1CCC(Nc2ccc3c(=O)[nH]c(CSC4CCOCC4)nc3c2)CC1 [Example 113, 7-((1-Methylpiperidin-4-yl)amino)-2-(((tetrahydro-2H-pyran-4-yl)thio)methyl)quinazolin-4(3H)-one]"
6,< 1000 nM,O=c1[nH]c(CS[C@H]2CC[C@H](O)CC2)nc2cc(NC3CCN(CCC(F)(F)F)CC3)c(F)c(F)c12 [Example 354]
7,< 1000 nM,CN(C)[C@H]1CC[C@H](SCc2nc3cc(OCC4CC4)cc(F)c3c(=O)[nH]2)CC1 [Example 404]
8,< 1000 nM,O=c1[nH]c(CSC2CCOCC2)nc2cc(OCC3CCOCC3)c(F)c(F)c12 [Example 406]
9,< 1000 nM,O=c1[nH]c(CSC2CCOCC2)nc2cc(OCC3CCS(=O)(=O)CC3)cc(F)c12 [Example 351]
10,< 1000 nM,CC(=O)N1CCC(COc2cc(F)c3c(=O)[nH]c(CS[C@H]4CC[C@H](O)CC4)nc3c2)CC1 [Example 396]
11,< 1000 nM,"CC(=O)N[C@H]1CC[C@H](SCc2nc3cc(OCC4CC4)cc(F)c3c(=O)[nH]2)CC1 [Example 330, N-((trans)-4-(((7-(Cyclopropylmethoxy)-5-fluoro-4-oxo-3,4-dihydroquinazolin-2-yl)methyl)thio)cyclohexyl)acetamide]"
12,< 1000 nM,N#Cc1cc(OCC2CCOC2)cc2nc(CSC3CCOCC3)[nH]c(=O)c12 (stereo not shown) [Example 383]
13,1000 to 10000 nM,"CC(=O)N1CCC(Nc2ccc3c(=O)[nH]c(CSC4CCOCC4)nc3c2)C1 (stereo not shown) [Example 134, 7-((1-Acetylpyrrolidin-3-yl)amino)-2-(((tetrahydro-2H-pyran-4-yl)thio)methyl)quinazolin-4(3H)-one]"
14,< 1000 nM,"O=c1[nH]c(CSC2CCOCC2)nc2cc(OC[C@H]3CCOC3)cc(F)c12 [Example 239b, (S)-5-fluoro-2-(((tetrahydro-2H-pyran-4-yl)thio)methyl)-7-((tetrahydrofuran-3-yl)methoxy)quinazolin-4(3H)-one]"
15,< 1000 nM,"O=c1[nH]c(CSC2CCOCC2)nc2cc(NCC3CC3)c(F)cc12 [Example 292, 7-((Cyclopropylmethyl)amino)-6-fluoro-2-(((tetrahydro-2H-pyran-4-yl)thio)methyl)quinazolin-4(3H)-one]"
16,< 1000 nM,"O=c1[nH]c(CS[C@H]2CC[C@H](O)CC2)nc2cc(OC[C@@H]3CCOC3)cc(F)c12 [Example 325a, 5-Fluoro-2-((((trans)-4-hydroxycyclohexyl)thio)methyl)-7-(((R)-tetrahydrofuran-3-yl)methoxy)quinazolin-4(3H)-one]"
17,< 1000 nM,CC(=O)N[C@H]1CC[C@H](SCc2nc3cc(NC4CCC4)c(F)c(F)c3c(=O)[nH]2)CC1 [Example 392]
18,1000 to 10000 nM,Cc1cccc2nc(CSC3CCOCC3)[nH]c(=O)c12 [Example 9]
19,< 1000 nM,O=c1[nH]c(CS[C@H]2CC[C@H](O)CC2)nc2cc(OCC3CCOCC3)cc(F)c12 [Example 342]
20,< 1000 nM,"O=c1[nH]c(CSC2CCS(=O)(=O)CC2)nc2cc(OCC3CCC3)cc(F)c12 [Example 304, 7-(cyclobutylmethoxy)-2-(((1,1-dioxidotetrahydro-2H-thiopyran-4-yl)thio)methyl)-5-fluoroquinazolin-4(3H)-one]"
21,< 1000 nM,"O=c1[nH]c(CSC2CCOCC2)nc2cc(OCC3CCN(C4COC4)CC3)cc(F)c12 [Example 301, 5-Fluoro-7-((1-(oxetan-3-yl)piperidin-4-yl)methoxy)-2-(((tetrahydro-2H-pyran-4-yl)thio)methyl)quinazolin-4(3H)-one]"
22,1000 to 10000 nM,"CN(C)c1ccc2c(=O)[nH]c(CSC3CCOCC3)nc2c1 [Example 109, 7-(Dimethylamino)-2-(((tetrahydro-2H-pyran-4-yl)thio)methyl)quinazolin-4(3H)-one]"
23,< 1000 nM,O=c1[nH]c(CS[C@H]2CC[C@H](O)CC2)nc2cc(N[C@@H]3CCCOC3)c(F)c(F)c12 [Example 381]
